Test results from patent US20060246026A1, “Barrier formulation comprising a silicone based emulsion” (priority 2003, published 2006).

Tested on: bacterial counts on the fingertips
Assay: prEN 12791 in vivo anti-microbial activity on fingertips of volunteers
Set-up: species or system human
Conditions: after 3 minutes (immediate); 20 volunteers; 60% propanol compared with the formulation (p<0.0001)
Description: The anti-microbial efficacy of the formulation of Example 5 was assessed in the clinical setting. The acceptability of the formulation of Example 5 by health care workers (HCW) was investigated. In vitro and in vivo assessment of the formulation was undertaken in accordance with European standards currently used for assessing hygienic and surgical rubs and washes (prEN 12054 and prEN 12791).
prEN 12054 and prEN 12791 (European Standards for Assessing Hygienic and Surgical Hand Rubs and Washes) • In vitro antibacterial efficacy of the formulation was assessed for anti-microbial activity against Staphylococcus aureus ATCC 6538, Enterococcus hirae ATCC 10541, Pseudomonas aeruginosa ATCC 15442 and Escherichia coli NCTC 10536 in accordance with prEN 12054. In vivo anti-microbial activity of the formulation was compared with 60% (v/v) […] (gold standard) in accordance with […]. Twenty laboratory volunteers participated in the assessment of the formulation in accordance to prEN 12791.

Compound: CCCO [60% propanol, propanol]
- Mean reduction factor in the bacterial counts on the fingertips, immediate: significantly higher mean reduction factor
